In assay [1] the test system is human platelets in plasma. The assay is described as follows: Platelet aggregation in platelet-rich plasma (light transmission aggregometry). It is filed as cell-based. Conditions: 20 min, n=5, mean±S.E.M. As to the method: With approval from the regional ethical board Örebro-Uppsala county (Dnr 2015/543) blood was obtained from healthy volunteers, who denied to have taken any medication two weeks prior to donation, by venipuncture and drawn into 10 ml syringes preloaded by the supplier with trisodium citrate solution (Sarstedt, Nümbrecht, Germany, Order number: 02.1067.001) The blood was and centrifuged at 220 g for 20 min. The PRP thus obtained was transferred into fresh 15 ml polypropylene tubes, and the remaining blood was centrifuged at 2200 g for 20 min to separate the PPP from remaining blood cells.
Measurements were performed at 37° C. using Chrono-Log lumi-aggregometer (Model 700, Chrono-log Corporation, Havertown, Pa., USA) with stirring at 900 rev./min using a final volume of 0.3 ml platelet suspension. Aggregation is expressed as percentage light transmission compared with PPP alone (=100%).
Platelets were preincubated with vehicle or AR-C66096 as indicated for 5 min followed by the stimulation with 1 μg/ml collagen, 10 μM SFLLRN, 30 μg/ml C34, 10 μg/ml fucoidan, or 30 μg/ml dextran sulfate (DxS) (FIG. 4A).
Platelets were preincubated with vehicle or ICI 192,506 as indicated for 5 min followed by the stimulation with 1 μg/ml collagen, 10 μM SFLLRN, 30 μg/ml C34, 10 μg/ml fucoidan, or 30 μg/ml dextran sulfate (DxS) (FIG. 4B).
Platelets were preincubated with vehicle or AR-C66096 and ICI 192,506 as indicated for 5 min followed by the stimulation with 1 μg/ml collagen, 10 μM SFLLRN, 30 μg/ml C34, 10 μg/ml fucoidan, or 30 μg/ml dextran sulfate (DxS) (FIG. 4C).

In assay [2] the test system is human platelets in plasma. Described as above. It is filed as cell-based. The following applies: in the presence of both TPα and P2Y12 antagonists (dual inhibition; DAPT), FIG. 3.
The test system of assay [3] is washed (isolated) human platelets. Conditions: from Kauskot et al. [4]; cited from earlier work.
Setting [4] is: FIG. 4A, in the presence of P2Y12 receptor antagonist AR-C66096 (5 min preincubation), same agonist concentrations.
Setting [5] is: FIG. 4A, vehicle preincubation (no antagonist), 1 μg/ml collagen, 10 μM SFLLRN, 30 μg/ml C34, 10 μg/ml fucoidan, 30 μg/ml DxS.
Where [6] appears, read: FIG. 4B, in the presence of TPα receptor antagonist ICI 192,605 (5 min preincubation), same agonist concentrations.
Setting [7] is: FIG. 4B, vehicle preincubation (no antagonist), same agonist concentrations.
[8] abbreviates: FIG. 4C, dual inhibition with AR-C66096 and ICI 192,605 (5 min preincubation), same agonist concentrations.
Setting [9] is: FIG. 4C, vehicle preincubation (no antagonist), same agonist concentrations.

As to Collagen, the “extent of platelet aggregation (percentage light transmission compared with PPP)” value is 23±4% in assay [1] (setting [4]); 85±2% in assay [1] (setting [5]); 21±4% in assay [1] (setting [6]); 90±3% in assay [1] (setting [7]); 11±2% in assay [1] (setting [8]); 86±2% in assay [1] (setting [9]). The “course of platelet aggregation under dual inhibition (reversibility of first phase)” value in assay [2] is reported as “only the first but reversible phase”.

As to SFLLRN, the “extent of platelet aggregation (percentage light transmission compared with PPP)” value is 5±1% in assay [1] (setting [4]); 91±3% in assay [1] (setting [5]); 15±6% in assay [1] (setting [6]); 91±3% in assay [1] (setting [7]); 3±1% in assay [1] (setting [8]); 93±2% in assay [1] (setting [9]). In addition, the “course of platelet aggregation under dual inhibition (reversibility of first phase)” value in assay [2] is reported as “only the first but reversible phase”.

As to dextran sulfate [DxS], the “extent of platelet aggregation (percentage light transmission compared with PPP)” value in assay [1] (setting [4]) came out at 23±6%; in assay [1] (setting [5]), 84±5%; in assay [1] (setting [6]), 39±7%; in assay [1] (setting [7]), 88±6%; in assay [1] (setting [8]) it was 37±6%; in assay [1] (setting [9]), 88±6%. Besides, in assay [2], the “course of platelet aggregation under dual inhibition (reversibility of first phase)” value is “irreversible and sustained”.

B1: PEAR1-EC: PEAR1 extracellular domain protein (Kauskot et al.) (protein, UniProt Q5VY43 21-755, looked up)
extracellular domain: LNPSDPNTCSFWESFTTTTKESHSRPFSLLPSEPCERPWEGPHTCPQPTVVYRTVYRQVVKTDHRQRLQCCHGFYESRGFCVPLCAQECVHGRCVAPNQCQCVPGWRGDDCSSECAPGMWGPQCDKPCSCGNNSSCDPKSGVCSCPSGLQPPNCLQPCTPGYYGPACQFRCQCHGAPCDPQTGACFCPAERTGPSCDVSCSQGTSGFFCPSTHSCQNGGVFQTPQGSCSCPPGWMGTICSLPCPEGFHGPNCSQECRCHNGGLCDRFTGQCRCAPGYTGDRCREECPVGRFGQDCAETCDCAPDARCFPANGACLCEHGFTGDRCTDRLCPDGFYGLSCQAPCTCDREHSLSCHPMNGECSCLPGWAGLHCNESCPQDTHGPGCQEHCLCLHGGVCQATSGLCQCAPGYTGPHCASLCPPDTYGVNCSARCSCENAIACSPIDGECVCKEGWQRGNCSVPCPPGTWGFSCNASCQCAHEAVCSPQTGACTCTPGWHGAHCQLPCPKGQFGEGCASRCDCDHSDGCDPVHGRCQCQAGWMGARCHLSCPEGLWGVNCSNTCTCKNGGTCLPENGNCVCAPGFRGPSCQRSCQPGRYGKRCVPCKCANHSFCHPSNGTCYCLAGWTGPDCSQPCPPGHWGENCAQTCQCHHGGTCHPQDGSCICPLGWTGHHCLEGCPLGTFGANCSQPCQCGPGEKCHPETGACVCPPGHSGAPCRIGIQEPFTVMPTTPVAYNSL
modifications: extracellular domain
Turning to B1, the “aggregation of washed human platelets” value in assay [3] was “induce aggregation of washed (isolated) human platelets in a concentration-dependent fashion”.
